How the values were obtained:
[1] = target: T1, Rlip (RLIP76) purified from H358 and H1618 cells (Homo sapiens, UniProt Q15311); assay: […]-DOX uptake into Rlip proteoliposomes, rapid filtration; format: biochemical; details: read-out: % inhibition of DOX transport at 20 μM
T1 construct: gene RALBP1
T1 sequence (Q15311 2-655): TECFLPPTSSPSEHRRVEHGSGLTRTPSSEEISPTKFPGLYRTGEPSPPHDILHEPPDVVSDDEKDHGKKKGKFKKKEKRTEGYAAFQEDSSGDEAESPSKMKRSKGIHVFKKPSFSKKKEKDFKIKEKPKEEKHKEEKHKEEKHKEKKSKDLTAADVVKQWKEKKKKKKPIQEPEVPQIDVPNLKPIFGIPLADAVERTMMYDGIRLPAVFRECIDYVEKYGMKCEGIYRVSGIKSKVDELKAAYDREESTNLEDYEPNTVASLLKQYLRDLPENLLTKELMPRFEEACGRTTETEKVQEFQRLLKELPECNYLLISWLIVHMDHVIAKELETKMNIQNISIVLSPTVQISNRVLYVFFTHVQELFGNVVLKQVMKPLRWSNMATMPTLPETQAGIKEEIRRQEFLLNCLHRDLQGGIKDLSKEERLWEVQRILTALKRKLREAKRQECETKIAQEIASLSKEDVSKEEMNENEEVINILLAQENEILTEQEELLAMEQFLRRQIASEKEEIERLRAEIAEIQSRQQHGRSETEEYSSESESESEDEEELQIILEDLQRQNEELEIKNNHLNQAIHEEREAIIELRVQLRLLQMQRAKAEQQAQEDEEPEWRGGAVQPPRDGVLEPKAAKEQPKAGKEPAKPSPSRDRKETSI

[2] = target: T2, recombinant RLIP (RLIP76) (Homo sapiens, UniProt Q15311); assay: DNP-SG affinity resin binding and elution with free DNP-SG; details: 0.2 mM DNP-SG, 10 mM ATP, 10 mM MgCl2; also stimulates the ATPase as allocrite
T2 construct: gene RALBP1; fragments incl; 38 kDa present
T2 sequence (Q15311 1-655): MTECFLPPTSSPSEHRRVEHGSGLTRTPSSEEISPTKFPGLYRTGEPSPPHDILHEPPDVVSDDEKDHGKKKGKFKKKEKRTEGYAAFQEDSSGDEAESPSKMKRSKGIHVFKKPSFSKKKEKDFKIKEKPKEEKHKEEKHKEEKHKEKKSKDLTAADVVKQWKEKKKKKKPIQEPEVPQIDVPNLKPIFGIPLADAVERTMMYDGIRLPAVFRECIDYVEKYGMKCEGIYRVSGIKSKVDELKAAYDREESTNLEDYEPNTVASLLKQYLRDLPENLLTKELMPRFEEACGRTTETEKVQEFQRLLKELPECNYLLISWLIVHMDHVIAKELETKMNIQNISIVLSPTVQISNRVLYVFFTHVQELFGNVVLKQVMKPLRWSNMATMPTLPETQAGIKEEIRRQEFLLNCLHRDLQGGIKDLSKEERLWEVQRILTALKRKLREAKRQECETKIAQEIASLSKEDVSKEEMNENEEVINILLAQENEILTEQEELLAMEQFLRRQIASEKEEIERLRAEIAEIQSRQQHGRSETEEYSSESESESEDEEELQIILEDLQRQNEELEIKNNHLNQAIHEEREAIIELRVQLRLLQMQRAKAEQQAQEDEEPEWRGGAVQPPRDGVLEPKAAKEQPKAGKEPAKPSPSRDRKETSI

| inhibition at 20 µM [1] | Structure (SMILES) | DNP-SG affinity resin binding and elution with free DNP-SG [2] |
| --- | --- | --- |
| 22% | O=C1CC(c2ccccc2O)Oc2ccccc21 (centres unmarked) [2HF, 2'-hydroxyflavanone] |  |
|  | N[C@@H](CCC(=O)N[C@@H](CSc1ccc([N+](=O)[O-])cc1[N+](=O)[O-])C(=O)NCC(=O)O)C(=O)O [DNP-SG, dinitrophenyl-S-glutathione] | the same major Rlip protein bands were observed in the 2HF eluate as in the DNP-SG eluate |
